Data reported in patent publication US10287269B2, “Pyrazolyl pyrimidinone compounds as PDE2 inhibitors” (Merck Sharp & Dohme Corp., priority 2015, dated 2019).

Experiments:
[1] = biological target: T1, human PDE2A1 (Homo sapiens, UniProt O00408); assay: PDE2 IMAP FP inhibition assay, human enzyme (PDE selectivity panel format); assay type: biochemical; details: Lab A; read-out: Human PDE2 Ki (nM) Lab A
T1 construct: GST; purchased BPS Bioscience (San Diego, Calif.) 60020; host or cells: insect cells
Method: Selectivity for PDE2, as compared to other PDE families, was assessed using the IMAP® technology. Human PDE10A2 enzyme was prepared from cytosolic fractions of transiently transfected HEK cells. All other PDE's were GST Tag human enzyme expressed in insect cells and were obtained from BPS Bioscience (San Diego, Calif.): PDE1A (Cat#60010), human PDE2A1 (Cat#60020), PDE3A (Cat#60030), PDE4A1A (Cat#60040), PDE5A1 (Cat#60050), PDE6C (Cat#60060), PDE7A (Cat#60070), PDE8A1 (Cat#60080), PDE9A2 (Cat#60090), PDE11A4 (Cat#60110).
Assays for PDE 1 through 11 were performed in parallel at room temperature in 384-well microtiter plates with an incubation volume of 20.2 μL. Solutions of test compounds were prepared in DMSO and serially diluted with DMSO to yield 30 μL of each of ten solutions differing by 3-fold in concentration, at 32 serial dilutions per plate. […] A Labcyte POD 810 (Labcyte, Sunnyvale, Calif.) was used to dispense 200 nL from each well of the titration plate to make eleven copies of the assay plate for each titration, one copy for each PDE enzyme. A solution of each enzyme (dilution from aliquots, sufficient to produce 20% substrate conversion) and a separate solution of FAM-labeled cAMP or FAM-labeled cGMP from Molecular Devices (Sunnyvale, Calif., product # R7506 or cGMP#R7508), at a final concentration of 50 nM were made in the assay buffer (10 mM Tris HCl, pH 7.2, 10 mM MgCl2, 0.05% NaN3 0.01% Tween-20, and 1 mM DTT). Note that the substrate for PDE2 is 50 nM FAM cAMP containing 1000 nM of cGMP. The enzyme and the substrate were then added to the assay plates in two consecutive additions of 10 μL and then shaken to mix. The reaction was allowed to proceed at room temperature for 60 minutes. A binding solution was then made from the kit components, comprised of 80% Solution A, 20% Solution B and binding reagent at a volume of 1/600 the total binding solution. The enzymatic reaction was stopped by addition of 60 μL of the binding solution to each well of the assay plate. The plates were sealed and shaken for 10 seconds. The plates were incubated at room temperature for one hour, then the parallel and perpendicular fluorescence was measured using a Tecan Genios Pro plate reader (Tecan, Switzerland). The apparent inhibition constants for the compounds against all 11 PDE's was determined from the parallel and perpendicular fluorescent readings as described for PDE10 FP assay using the following apparent KM values for each enzyme and substrate combination: PDE1A (FAM cGMP) 70 nM, human PDE2A1 (FAM cAMP) 10,000 nM, PDE3A (FAM cAMP) 50 nM, PDE4A1A (FAM cAMP) 1500 nM, PDE5A1 (FAM cGMP) 400 nM, PDE6C (FAM cGMP) 700 nM, PDE7A (FAM cAMP) 150 nM, PDE8A1 (FAM cAMP) 50 nM, PDE9A2 (FAM cGMP) 60 nM, PDE10A2 (FAM cAMP) 150 nM, PDE11A4 (FAM cAMP) 1000 nM. The intrinsic PDE2 inhibitory activity of a compound which may be used in accordance with the present invention may be determined by these assays. […]

[2] = system: other PDE isoforms; details: reported in Brandon et al. 2007; cited from earlier work
[3] = reported in Brandon et al. 2007; cited from earlier work

T1 sequence (O00408 1-920 isoform O00408-2): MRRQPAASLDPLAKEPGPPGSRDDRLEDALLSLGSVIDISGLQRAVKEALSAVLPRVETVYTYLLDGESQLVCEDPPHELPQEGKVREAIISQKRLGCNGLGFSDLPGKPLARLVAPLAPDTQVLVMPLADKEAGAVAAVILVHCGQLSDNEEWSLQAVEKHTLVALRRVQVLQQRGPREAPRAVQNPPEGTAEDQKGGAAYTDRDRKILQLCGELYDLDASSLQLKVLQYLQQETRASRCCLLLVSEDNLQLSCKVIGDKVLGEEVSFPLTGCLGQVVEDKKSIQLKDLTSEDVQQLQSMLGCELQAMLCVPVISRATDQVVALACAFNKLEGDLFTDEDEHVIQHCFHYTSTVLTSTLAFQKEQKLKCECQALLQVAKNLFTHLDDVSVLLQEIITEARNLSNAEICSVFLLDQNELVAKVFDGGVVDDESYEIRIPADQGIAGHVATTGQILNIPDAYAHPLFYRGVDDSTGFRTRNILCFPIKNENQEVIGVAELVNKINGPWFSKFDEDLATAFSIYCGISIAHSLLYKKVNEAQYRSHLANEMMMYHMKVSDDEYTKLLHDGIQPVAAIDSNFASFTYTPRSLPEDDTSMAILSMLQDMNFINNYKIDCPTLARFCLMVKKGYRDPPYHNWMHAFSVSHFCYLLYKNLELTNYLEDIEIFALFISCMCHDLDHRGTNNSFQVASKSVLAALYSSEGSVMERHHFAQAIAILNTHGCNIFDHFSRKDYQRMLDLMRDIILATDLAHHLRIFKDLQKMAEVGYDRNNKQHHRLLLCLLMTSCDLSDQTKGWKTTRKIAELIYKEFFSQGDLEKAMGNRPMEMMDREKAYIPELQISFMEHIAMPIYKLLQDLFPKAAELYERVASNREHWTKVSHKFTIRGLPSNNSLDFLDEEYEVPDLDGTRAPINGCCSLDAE

Row | Structure (SMILES) | Ki [1] | potency at other PDE isoforms [2] | brain penetration [3]
1 | COc1ccc(Cc2nn3c([C@@H](CCCc4ccccc4)[C@@H](C)O)nc(C)c3c(=O)[nH]2)cc1OC [Bay 60-7550] | – | significant potency | limited brain penetration
2 | COC(=O)C(c1ccc(C(F)(F)F)cc1F)n1cc(-c2cc(=O)[nH]c(C)n2)cn1 (stereo not drawn) [Example 113, methyl 2-(2-fluoro-4-(trifluoromethyl)phenyl)-2-(4-(2-methyl-6-oxo-1,6-dihydropyrimidin-4-yl)-1H-pyrazol-1-yl)acetate] | 1970 nM | – | –

Continued, in another order:

Row | Ki [1] | Structure (SMILES) | potency at other PDE isoforms [2] | brain penetration [3]
3 | 6.5 nM | Cc1nc(-c2cnn(C(CO)c3ccc(C(F)(F)F)cc3Cl)c2)cc(=O)[nH]1 (single isomer, unassigned) [Example 123, (S)- or (R)-6-(1-(1-(2-chloro-4-(trifluoromethyl)phenyl)-2-hydroxyethyl)-1H-pyrazol-4-yl)-2-methylpyrimidin-4(3H)-one] | – | –
4 | 1820 nM | CCc1ccc(C(C(=O)OC)n2cc(-c3cc(=O)[nH]c(C)n3)cn2)c(Cl)c1 (stereo not drawn) [Example 114, methyl 2-(2-chloro-4-ethylphenyl)-2-(4-(2-methyl-6-oxo-1,6-dihydropyrimidin-4-yl)-1H-pyrazol-1-yl)acetate] | – | –
5 | 16.7 nM | CCc1ccc(C(C)(O)c2cnn(-c3cc(=O)[nH]c(C)n3)c2)c(Cl)c1 (stereo not drawn) [Example 119, 6-(4-(1-(2-chloro-4-ethylphenyl)-1-hydroxyethyl)-1H-pyrazol-1-yl)-2-methylpyrimidin-4(3H)-one] | – | –
